Measured values published in paper PMC3599263 (DARU Journal of Pharmaceutical Sciences, 2013).
Read-outs that look alike come from different tables or passages of the source.

Columns and labels:
BuChE from equine serum = biological target: T1, BuChE from equine serum (Equus caballus, UniProt P81908); assay: biochemical
T1 construct: BuChE from equine serum; purchased Sigma-Aldrich (Steinheim, Germany); host or cells: equine serum

[1] = biological target: AChE (E.C. 3.1.1.7, Type V-S, from electric eel) (Electrophorus electricus, UniProt O42275); assay: biochemical
Sequence of AChE (E.C. 3.1.1.7, Type V-S, from electric eel) (O42275 24-633): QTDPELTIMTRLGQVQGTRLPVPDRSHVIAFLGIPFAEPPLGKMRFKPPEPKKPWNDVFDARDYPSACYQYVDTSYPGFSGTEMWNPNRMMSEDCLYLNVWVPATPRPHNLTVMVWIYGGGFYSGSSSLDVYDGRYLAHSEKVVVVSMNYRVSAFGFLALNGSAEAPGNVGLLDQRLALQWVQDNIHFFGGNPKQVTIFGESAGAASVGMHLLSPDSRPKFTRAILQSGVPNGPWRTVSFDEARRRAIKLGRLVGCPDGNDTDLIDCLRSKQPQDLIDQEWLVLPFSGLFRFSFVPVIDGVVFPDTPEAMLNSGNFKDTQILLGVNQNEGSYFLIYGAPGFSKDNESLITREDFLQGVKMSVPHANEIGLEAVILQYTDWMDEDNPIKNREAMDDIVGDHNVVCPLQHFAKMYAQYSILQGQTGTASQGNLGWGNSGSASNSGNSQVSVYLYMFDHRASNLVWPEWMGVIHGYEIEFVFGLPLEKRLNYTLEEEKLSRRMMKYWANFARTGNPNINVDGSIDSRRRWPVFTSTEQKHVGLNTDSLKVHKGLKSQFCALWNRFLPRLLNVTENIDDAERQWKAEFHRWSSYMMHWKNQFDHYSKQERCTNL

T1 sequence (P81908 whole entry): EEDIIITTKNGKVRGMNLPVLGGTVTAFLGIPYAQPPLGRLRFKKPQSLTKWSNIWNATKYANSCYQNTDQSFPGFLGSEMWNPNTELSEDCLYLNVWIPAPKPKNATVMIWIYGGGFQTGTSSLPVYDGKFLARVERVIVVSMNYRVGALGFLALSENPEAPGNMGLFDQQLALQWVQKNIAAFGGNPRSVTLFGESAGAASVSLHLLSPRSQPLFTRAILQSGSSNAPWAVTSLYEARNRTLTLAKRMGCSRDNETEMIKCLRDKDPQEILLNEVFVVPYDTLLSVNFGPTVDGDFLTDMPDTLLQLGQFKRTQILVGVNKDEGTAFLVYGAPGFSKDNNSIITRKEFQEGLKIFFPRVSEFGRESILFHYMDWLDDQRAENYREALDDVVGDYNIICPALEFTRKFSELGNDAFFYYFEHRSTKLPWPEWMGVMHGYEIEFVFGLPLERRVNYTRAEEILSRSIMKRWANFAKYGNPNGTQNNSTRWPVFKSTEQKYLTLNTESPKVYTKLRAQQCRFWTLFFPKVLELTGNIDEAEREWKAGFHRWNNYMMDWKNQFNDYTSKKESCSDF

Row | Structure (SMILES) | IC50 (BuChE from equine serum) | IC50 [1] | IC50 (BuChE from equine serum; Ellman's method, 25°C, pH 8.0, 15 min pre-incubation, mean ± SD of three independent experiments, read-out: BuChE (IC50 ± SD))
1 | COc1cc2c(cc1OC)C(=O)/C(=C/c1cc[n+](Cc3ccccc3)cc1)O2 [5a, (Z)-1-Benzyl-4-((5,6-dimethoxy-3-oxobenzofuran-2(3H)-ylidene)methyl) pyridinium bromide] | 1400 ± 85 nM | 86 ± 10.9 nM | –
2 | COc1cc2c(cc1OC)C(=O)/C(=C/c1cc[n+](Cc3ccc(C)cc3)cc1)O2 [5g, (Z)-1-(4-Methylbenzyl)-4-((5,6-dimethoxy-3-oxobenzofuran-2(3H)-ylidene)methyl) pyridinium chloride] | – | 514 ± 29.5 nM | 7600 ± 260 nM
